The values below come from EP4775582A1, “MACROCYCLIC COMPOUND AND ANTIBODY-DRUG CONJUGATE THEREOF” (Genfleet Therapeutics (Shanghai) Inc., priority 2023, dated 2025).

One data set has as its target KRAS WT-cRAF (Homo sapiens, UniProt P01116+P62937). As to the kind of experiment: Assay for binding of KRAS to cRAF (HTRF, with Cyclophilin A), KRAS WT. In general terms: TR-FRET usually uses a lanthanide donor and a delayed reading to cut background.
In the next data set the target is KRAS G12V-cRAF (Homo sapiens, UniProt P01116+P62937, G12V). Description: Assay for binding of KRAS to cRAF (HTRF, with Cyclophilin A), KRAS G12V.
Data set [1] can be described thus: Human liver microsomal stability experiment. Type of data set: in vitro ADME. As to conditions: human liver microsomes; for CLint scaled: 45 mg/g, 20.7 g/kg scaling. The protocol:
This experiment was intended to investigate the metabolic stability of the test compounds in human liver microsomes. The materials used in the experiment included 10 mM solutions of the test compounds and the control sample, human liver microsomes, and reduced nicotinamide adenine dinucleotide phosphate (NADPH) powder. In the experiment, a 100 mM potassium phosphate buffer was used as the buffer system.
The liver microsome working solution was prepared by diluting the liver microsome stock solution to 0.75 mg/mL using the 100 mM potassium phosphate buffer. Then, 5 µL of the 10 mM stock solution of the test compound was taken, and 195 µL of methanol was added. The mixture was well mixed to prepare a working solution A with a concentration of 0.25 mM. Subsequently, the working solution A was diluted to 1.5 µM using the liver microsome working solution to prepare a compound-liver microsome mixed solution. Additionally, NADPH powder was dissolved in 100 mM potassium phosphate buffer to prepare a 6 mM NADPH solution. The compound-liver microsome mixed solution was dispensed into a 96-well plate at 30 µL/well, with labeled time points of 0 min, 30 min, and 60 min. For 0-min samples, 180 µL of acetonitrile containing 100 ng/mL tolbutamide and 15 µL of the NADPH solution were added directly. The 96-well plate and the NADPH solution were then preheated under a 37 °C water bath for 5 min. After the preheating, 15 µL of the NADPH solution was added to each of the 30-min and 60-min sample wells. The plate was gently shaken for mixing and then incubated under the 37 °C water bath for the corresponding time. After the incubation was completed, 180 µL of acetonitrile containing 100 ng/mL tolbutamide was added to each sample well. The plate was sealed with a sealing film, shaken for 10 min (800 rpm/min), and then centrifuged for 15 min (4000 rpm). After the centrifugation, 50 µL of the supernatant was taken and added to a 96-well plate containing 150 µL of deionized water, and then the plate was sealed and shaken for 10 min (800 rpm) for uniform mixing. Subsequently, sample analysis was performed using liquid chromatography-tandem mass spectrometry (LC-MS/MS). […] For humans, the microsome protein-to-liver weight ratio was 45 mg/g, and the liver-to-body weight ratio was 20.7 g/kg.
(Microsomes from liver hold many membrane-bound enzymes, among them those of drug oxidation.)

The nature of data set [2]: Solubility experiment (HPLC, external standard). As to conditions: ph 7.4 medium, pH 7.4, pH 7.4 medium, 37 °C, 24 h. The format is physicochemical. The gist of the method:
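Solid compound (about 1 mg per 1 mL medium) was shaken at 37 °C for 24 h in pH 1.2, 4.5 or 7.4 media, then centrifuged and the supernatant diluted with acetonitrile/water 50/50. Concentration in μg/mL was found by HPLC against an external standard prepared from a DMSO stock.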

The test system of another data set is H441 p-ERK. Description: Cell p-ERK assay (HTRF), NCI-H441 cells. Type of data set: cell-based, human. As to conditions: NCI-H441 cells (KRAS G12V), 3 h incubation. The gist of the method:
(§1)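 AsPC-1 (10000/well) or NCI-H441 (20000/well) cells were seeded overnight and then exposed to compound for 3 h at 37 °C. Lysates were probed for ERK phospho-T202/Y204 by HTRF with a 4-hour antibody incubation. IC50 values came from four-parameter fits of inhibition against log concentration.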

The next data set deals with NCI-H441 cells. As to the kind of experiment: 3D cell proliferation assay (CellTiter Glo-3D), NCI-H441. Type of data set: cell-based, human. As to conditions: NCI-H441 cells (KRAS G12V), 2% FBS, 5 days, read-out: H441 AP IC50. The gist of the method: (§2)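 Cells seeded at 800 per well (AsPC-1, NCI-H441) in 2% FBS medium and incubated overnight at 37 °C, 5% CO2. Compounds added next day from 10× stock, then 5 days' further culture. Viability read by CellTiter-Glo luminescence; IC50 from four-parameter fit of inhibition versus log concentration.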

The subject of another data set is AsPC-1 cells. Description: 3D cell proliferation assay (CellTiter Glo-3D), AsPC-1. Type of data set: cell-based, human. As to conditions: AsPC-1 cells (KRAS G12D), 3D, 2% FBS, 5 days, read-out: AsPC-1 AP IC50. The gist of the method: as §2
For orientation: In ATP-based viability assays light output follows the ATP content of the culture.

The test system of the next data set is AsPC-1 p-ERK. Description: Cell p-ERK assay (HTRF), AsPC-1 cells. As to conditions: AsPC-1 cells (KRAS G12D), 3 h incubation, read-out: AsPC-1 p-ERK IC50. Type of data set: cell-based, human. The gist of the method: as §1
The mark [3] stands for this setting: read-out: KRAS WT-cRAF binding assay, GPPNP-KRAS WT, IC50 values.
Where [4] appears, read: read-out: KRAS G12V-cRAF binding assay, GPPNP-KRAS G12V, IC50 values.
Where [5] appears, read: KRAS WT-cRAF binding assay(nM), GPPNP-KRAS WT, IC50 values.
Setting [6] is: KRAS G12V-cRAF binding assay(nM), GPPNP-KRAS G12V, IC50 values.

Structures are written as SMILES. ≈ marks a conversion by molar mass, not a printed value. Read-outs that look alike come from different tables or passages of the source.

Chain of KRAS G12V-cRAF (P01116 1-188 isoform P01116-2 G12V): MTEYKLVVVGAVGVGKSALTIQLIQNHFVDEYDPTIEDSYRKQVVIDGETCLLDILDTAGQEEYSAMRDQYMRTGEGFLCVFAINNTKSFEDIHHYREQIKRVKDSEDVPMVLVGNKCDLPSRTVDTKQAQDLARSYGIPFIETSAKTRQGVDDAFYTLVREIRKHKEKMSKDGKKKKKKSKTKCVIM
Chain of KRAS G12V-cRAF (P62937 whole entry): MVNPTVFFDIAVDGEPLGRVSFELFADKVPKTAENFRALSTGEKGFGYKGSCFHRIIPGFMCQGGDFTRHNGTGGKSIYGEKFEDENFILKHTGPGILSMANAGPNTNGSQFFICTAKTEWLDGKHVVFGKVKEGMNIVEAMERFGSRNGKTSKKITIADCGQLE
Chain of KRAS WT-cRAF (P01116 1-188 isoform P01116-2): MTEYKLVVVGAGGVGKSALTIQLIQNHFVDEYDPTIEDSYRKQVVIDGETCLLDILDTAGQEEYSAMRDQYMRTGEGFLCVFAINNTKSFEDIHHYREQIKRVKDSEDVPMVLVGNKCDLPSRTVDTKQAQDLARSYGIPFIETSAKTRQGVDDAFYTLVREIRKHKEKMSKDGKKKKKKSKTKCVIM
Chain of KRAS WT-cRAF (P62937 whole entry): as the sequence (P62937 whole entry) above
Experimental for KRAS G12V-cRAF: (§3) The plate was centrifuged at 1000 rpm for 1 min and then incubated in the thermostatic incubator at 20 °C for 30 min. […] The plate was centrifuged at 1000 rpm for 1 min and then incubated in the thermostatic incubator at 20 °C for 60 min. […] The working solution was added to the aforementioned assay plate at 5 µL/well. The plate was centrifuged at 1000 rpm for 1 min and then incubated in the thermostatic incubator at 20 °C for 60 min.
Experimental for KRAS WT-cRAF: as §3

One may read the IC50 as the concentration at which inhibition is half-maximal. The term half-life denotes the time in which the quantity being followed falls by half. Read a low half-life as rapid decline. As a reminder, the CLint scaled is a measure of how fast metabolising enzymes remove a compound, apart from limits set by blood flow. Low readings indicate greater metabolic stability, high ones faster metabolism. As usually defined, the solubility is the concentration that dissolves in the medium under given conditions. The low end stands for little dissolved substance, the high end for much dissolved substance. For the compound `CCn1c(-c2cc(C#CCN3CCN(C(C)=O)CC3)cnc2[C@H](C)OC)c2c3cc(ccc31)-c1csc(n1)C[C@H](NC(=O)[C@H]1[C@H](C)[C@@H]1C)C(=O)N1CCC[C@H](N1)C(=O)OCC(C)(C)C2` (atropisomer, axis not shown) [Control compound 2], the values for the IC50 on KRAS WT-cRAF (setting [3]) and on KRAS G12V-cRAF (setting [4]) were 48.6 nM and 10.9 nM, respectively. The compound also registered a half-life in data set [1] (NADPH, 37 °C) of 9.8 min. This compound showed a CLint scaled in data set [1] of 164 mL/min/kg. Besides, the solubility at 24 h in data set [2] was 1.5 µg/mL (≈ 1.68 µM).

For the compound `CCn1c(-c2cc(C#CCN3CCC(C#N)(CN)CC3)cnc2[C@H](C)OC)c2c3cc(ccc31)-c1csc(n1)C[C@H](NC(=O)[C@H]1[C@H](C)[C@@H]1C)C(=O)N1CCC[C@H](N1)C(=O)OCC(C)(C)C2` (atropisomer, axis not shown; (Ra)) [Compound Z181, (1r,2R,3S)-N-((6^3S,4S,Z)-1^2-(Ra)-(5-(3-(4-(aminomethyl)-4-cyanopiperidin-1-yl)prop-1-yn-1-yl)-2-((S)-1-methoxyethyl)pyridin-3-yl)-1^1-ethyl-10,10-dimethyl-5,7-dioxo-6^1,6^2,6^3,6^4,6^5,6^6-hexahydro-1^1H-8-oxa-2(4,2)-thiazola-1(5,3)-indola-6(1,3)-pyridazinacycloundecaphan-4-yl)-2,3-dimethylcyclopropane-1-carboxamide], the IC50 at KRAS WT-cRAF (setting [3]) worked out at 36.4 nM; at KRAS G12V-cRAF (setting [4]), 13.1 nM. The same compound returned a half-life in data set [1] (NADPH, 37 °C) of 43.4 min. The compound also came in with a CLint scaled in data set [1] of 36.9 mL/min/kg.

For the compound `CCn1c(-c2cc(C#CCN3CCC(C#N)CC3)cnc2[C@H](C)OC)c2c3cc(ccc31)-c1csc(n1)C[C@H](NC(=O)[C@H]1[C@H](C)[C@@H]1C)C(=O)N1CCC[C@H](N1)C(=O)OCC(C)(C)C2` (atropisomer, axis not shown; (Ra)) [Compound Z282, (1r,2R,3S)-N-((6^3S,4S,Z)-1^2-(5-(3-(4-cyanopiperidin-1-yl)prop-1-yn-1-yl)-(Ra)-2-((S)-1-methoxyethyl)pyridin-3-yl)-1^1-ethyl-10,10-dimethyl-5,7-dioxo-6^1,6^2,6^3,6^4,6^5,6^6-hexahydro-1^1H-8-oxa-2(4,2)-thiazola-1(5,3)-indola-6(1,3)-pyridazinacycloundecaphan-4-yl)-2,3-dimethylcyclopropane-1-carboxamide], the IC50 on KRAS WT-cRAF (setting [3]) came out at 14.8 nM; on KRAS G12V-cRAF (setting [4]), 5.48 nM. In data set [1] (NADPH, 37 °C), the half-life stood at 18.1 min. In addition, the CLint scaled in data set [1] amounted to 88.5 mL/min/kg.

Regarding `CCn1c(-c2cc(C#CCN3CCC(C#N)(CN)CC3)cnc2[C@H](C)OC)c2c3cc(ccc31)-c1coc(n1)C[C@H](NC(=O)[C@H]1[C@H](C)[C@@H]1C)C(=O)N1CCC[C@H](N1)C(=O)OCC(C)(C)C2` (atropisomer, axis not shown; (Ra)) [Compound Z182], the IC50 at KRAS WT-cRAF (setting [3]) was 34.5 nM; on KRAS G12V-cRAF (setting [4]) it was 13 nM. The same compound yielded a half-life in data set [1] (NADPH, 37 °C) of 16.4 min. This compound gave a CLint scaled in data set [1] of 97.9 mL/min/kg.

Regarding `CCn1c(-c2cc(C#CCN3CCC(C#N)CC3)cnc2C(C)OC)c2c3cc(ccc31)-c1csc(n1)CC(NC(=O)C1C3COCC31)C(=O)N1CCCC(N1)C(=O)OCC(C)(C)C2` (atropisomer, axis not shown; (Ra)) [Compound Z56, (1R,5S,6r)-N-((6^3S,4S,Z)-(Ra)-1^2-(5-(3-(4-cyanopiperidin-1-yl)prop-1-yn-1-yl)-2-((S)-1-methoxyethyl)-pyridin-3-yl)-1^1-ethyl-10,10-dimethyl-5,7-dioxo-6^1,6^2,6^3,6^4,6^5,6^6-hexahydro-1^1H-8-oxa-2(4,2)-thiazola-1(5,3)-indola-6(1,3)-pyridazinacycloundecaphane-4-yl)-3-oxabicyclo[3.1.0]hexane-6-carboxamide], the IC50 at KRAS WT-cRAF (setting [5]) amounted to 13.9 nM; on KRAS G12V-cRAF (setting [6]), 11.9 nM; in the data set on H441 p-ERK (Homo sapiens), 0.12 nM; in the data set on NCI-H441 cells (Homo sapiens, 120 h), 0.14 nM; with AsPC-1 cells (Homo sapiens, ASPC1, 120 h), 0.09 nM; with AsPC-1 p-ERK (Homo sapiens, ASPC1), 0.07 nM. The half-life at 1 µM in data set [1] (NADPH, 37 °C) was 23.3 min. In data set [1], this compound gave a CLint scaled of 68.9 mL/min/kg.

Regarding `CCn1c(-c2cc(C#CCN3CCC(O)CC3)cnc2C(C)OC)c2c3cc(ccc31)-c1csc(n1)CC(NC(=O)C1C(C)C1C)C(=O)N1CCCC(N1)C(=O)OCC(C)(C)C2` (atropisomer, axis not shown; (Ra)) [Compound Z11, (1r,2R,3S)-N-((6^3S,4S,Z)-1^1-ethyl-(Ra)-1^2-(5-(3-(4-hydroxypiperidin-1-yl)prop-1-yn-1-yl)-2-((S)-1-methoxyethyl)pyridin-3-yl)-10,10-dimethyl-5,7-dioxo-6^1,6^2,6^3,6^4,6^5,6^6-hexahydro-1^1H-8-oxa-2(4,2)-thiazola-1(5,3)-indola-6(1,3)-pyridazinacycloundecaphane-4-yl)-2,3-dimethylcyclopropane-1-carboxamide], the IC50 came to 27.7 nM on KRAS WT-cRAF (setting [5]); 12.3 nM at KRAS G12V-cRAF (setting [6]); 0.21 nM in the data set with H441 p-ERK (Homo sapiens); 0.1 nM in the data set on NCI-H441 cells (Homo sapiens, 120 h); 0.15 nM in the data set with AsPC-1 cells (Homo sapiens, ASPC1, 120 h); 0.11 nM with AsPC-1 p-ERK (Homo sapiens, ASPC1). In data set [1] (NADPH, 37 °C), this compound returned a half-life at 1 µM of 30.3 min. Further, in data set [1], the CLint scaled amounted to 52.9 mL/min/kg.

On to `CCn1c(-c2cc(C#CCN3CCC(C#N)(CN)CC3)cnc2[C@H](C)OC)c2c3cc(ccc31)-c1csc(n1)C[C@H](NC(=O)[C@H]1[C@@H]3COC[C@@H]31)C(=O)N1CCC[C@H](N1)C(=O)OCC(C)(C)C2` (atropisomer, axis not shown; (Ra)) [Compound Z52, (1R,5S,6r)-N-((6^3S,4S,Z)-(Ra)-1^2-(5-(3-(4-(aminomethyl)-4-cyanopiperidin-1-yl)prop-1-yn-1-yl)-2-((S)-1-methoxyethyl)-pyridin-3-yl)-1^1-ethyl-10,10-dimethyl-5,7-dioxo-6^1,6^2,6^3,6^4,6^5,6^6-hexahydro-1^1H-8-oxa-2(4,2)-thiazola-1(5,3)-indola-6(1,3)-pyridazinacycloundecaphane-4-yl)-3-oxabicyclo[3.1.0]hexane-6-carboxamide], for which the IC50 at KRAS WT-cRAF (setting [3]) came to 16.5 nM; at KRAS G12V-cRAF (setting [4]), 13.3 nM; in the data set with H441 p-ERK it was 0.13 nM; with NCI-H441 cells it was 0.17 nM; in the data set with AsPC-1 cells, 0.08 nM; in the data set on AsPC-1 p-ERK it was 0.06 nM. In data set [1] (NADPH, 37 °C), the “T1/2” value is 47.3 min.
